Experiments:
[1] = tested on: colon carcinoma derived metastatic rat tumour line; details: SC tumour line transfected with cytosine deaminase gene, then 5-fluorocytosine; cited from earlier work
[2] = tested on: B16 melanoma lung metastases; details: tk gene then ganciclovir; immunocompetent but not immunodeficient mice; cited from earlier work
[3] = Adverse events, NCI-common toxicity criteria (BC1); format: in vivo, human; details: attributed to oral cyclophosphamide
Description: Further assessment was performed in out-patients on day 7. Biopsy of the injected tumour nodules was performed under local anaesthetic. The biopsies were snap-frozen in liquid nitrogen, then sectioned and fixed for histological assessment. Treatment with cyclophosphamide 100 mg/m^2 p.o. was commenced for 14 out of every 28 days. Patients were reviewed weekly for the first 8 weeks and end of study assessment, including tumour size and appropriate re-staging CT scans performed at 12 weeks. Response was assessed according to WHO criteria. Patients with stable or responding disease continued with cyclophosphamide at the discretion of the investigator. Toxicity was graded according to NCI-common toxicity criteria (version 2).
The main toxicity observed in the study was attributed to oral cyclophosphamide with the most frequent non-haematological events described as nausea (9 patients), alopecia (6 patients), headache (5 patients), anorexia (4 patients) and fatigue (4 patients). All of these events were grade I or II by NCI-CTC with the exception of one patient with grade III fatigue. Two patients had clinically significant haematological toxicity with grade III leucopenia and grade II neutropenia. No patients were admitted with neutropenic fever. […] During the study 3 patients with breast cancer experienced serious adverse events (patient 103 hypotension, dysarthria and left sided weakness, patient 104 trismus and tongue oedema and patient 108 deep vein thrombosis, hypotension and dyspnoea). None of the serious adverse events were considered related to MetXia-P450.

Q: Which “regression in the volume of established liver tumours” value [1] does the source give for `Nc1nc(=O)[nH]cc1F` [5-fluorocytosine] here?
A: The value was 70%.

Q: Which “B16 melanoma lung metastases” value [2] does the source give for `Nc1nc(O)c2ncn(COC(CO)CO)c2n1` [ganciclovir] here?
A: The value was “marked reduction”.

Q: What does the source list for `O=P1(N(CCCl)CCCl)NCCCO1` (stereo not drawn) [cyclophosphamide]?
A: clinically significant haematological toxicity (grade III leucopenia and grade II neutropenia) [3]: Two; fatigue [3]: 4 patients; grade III fatigue [3]: one; alopecia ([3]; grade I or II): 6 patients; anorexia ([3]; grade I or II): 4 patients; headache ([3]; grade I or II): 5 patients; nausea ([3]; grade I or II): 9 patients

From US7541044B2, “Administration of 5T4 antigen and immune response of cells expressing 5T4 and CEA antigens” (priority 2004, dated 2009)
